Measured values: patent EP0535528A1, “Antibacterial 5-Nitro-1-methyl-imidazolyl-3-terbutyl-2-hydroxy-aryl-carbinols” (EURORESEARCH S.r.L., priority 1991, dated 1993)
Values after ≈ are worked out from the molar mass of the structure shown.

How the values were obtained:
Helicobapter pylori [1] = test: Minimal inhibiting concentration (agar dilution); type: cell-based
Experimental: Substances under examination: EU11100, EU11102, EU11103, EU11104. Comparison substance: Metronidazole Solubilization of the substances: All the substances to be studied are dissolved at room temperature in DMSO. […] 10 strains of Helicobapter pylori are used of recent clinical isolation […] The sowing of the bacteria, prepared as described in the preceding test is carried out by means a "multi-point inoculator". After 48 hours incubation under the condition described in the preceding test, the plates are examined and the Minimal Inhibiting Concentration is evaluated, namely that dose corresponding to growth absence.

Helicobapter pylori [2] = test: Inhibition halos of the bacterial growth (impregnated disks on agar); type: cell-based; conditions: for activity against the Helicobapter pylori strains used: 10 strains; for Inhibition halo (mm), Average: average of 10 strains
Experimental: Comparison substance: Metronidazole Solubilization of the substances : All the substances to be studied are dissolved at room temperature in DMSO.
Some commercially available antibiogram disks are so impregnated with the above mentioned compounds that each disk has concentration equal to 10, 1, 0.1, 0.01 µg.
10 strains of Helicobapter pylori are used of recent clinical isolation.
Columbia Blood Agar Base is used, containing 5% of defibrinated horse blood, 2 % of calf serum, 2 vials of Vitox per liter of medium and Vancomicine (10 µg/ml) Trimetoprim lactate(5 µg/ml) and Polimixin B (2.5 U/ml).
0.1 ml of a suspension of the different used strains are uniformly distributed onto Petri plates, containing 20 ml of Columbia Blood Agar base, obtained by taking a sample, by means of a platinum loop, of different colonies from a 48 hours culture, grown in anaerobiosis jars with "Gas Pack", without a catalyst and diluted into a physiological solution.
4 disks per plate, previously impregnated with the substances under examination, are then placed onto the agar layer of each plate.
After 48 hours of anaerobiosis incubation, as above described, the inhibition halos of the bacterial growth, produced by the different activity of the substances inside the agar, are evaluated.

Swiss female albino mice = test: Oral and intraperitoneal acute toxicity in mice (LD50, Probits method); type: in vivo; conditions: mice
Experimental: 20 Swiss female albino mice are used for this test of the average weight of 20 g (±2), coming from Nossan breeding .
Cages: in Makrolon® with saw dust litter, Number of animals per cage: 5 Acclimation period: 1 week Temperature: 22°C (± 2°C) Humidity : 60%, Diet: pellets for mice produced by Nossan firm, Water ad libitum Fast before the treatment: 16 hours
Oral by gastric route and intraperitoneal.
The substances to be studied: EU11100, EU11102, EU11103, EU11104 are treated with 0.5% carboxymethylcellulose in spring water, for the oral administration, whereas the same substances are intraperitoneally administered in the form of a physiological solution .
For each of the above mentioned substances, a mother suspension is prepared having a concentration in the active ingredient of 250 mg/ml for the oral administration, and analogously a mother suspension is prepared for the intraperitoneal administration having a concentration of the desired active principle of 100 mg/ml.
The following doses are used • a) oral route: 5000 mg/kg • b) intraperitoneal route : 2000 mg/kg
If mortality is observed at the above mentioned doses, other doses are administered in order to obtain a dose-response curve.
5 animals are used for every utilized concentration.
After the administration of the above substances the animals are kept under observation for 14 days , during which the mortality and the behaviour is observed.
LD₅₀ is determined on the base of the cumulative mortality observed in the successive 14 days after the administration by using the Probits method.

SMILES: Cc1ccc(C(C)(C)C)c(O)c1C(O)c1ncc([N+](=O)[O-])n1C (centres unmarked) [EU11104, 5-nitro-1-methyl-imidazolyl-3-terbutyl-2-hydroxy-6 methyl-phenyl-carbinol]
- MIC 50% (Helicobapter pylori [1]; 10 strains): 0.03 µg/mL (≈ 0.0939 µM)
- MIC 90% (Helicobapter pylori [1]; 10 strains): 0.06 µg/mL (≈ 0.188 µM)
- MIC range (Helicobapter pylori [1]; 10 strains): 0.015 to 0.016 µg/mL
- MIC values (Helicobapter pylori [1]; in words, compared with Metronidazole): very low MIC values
- M.I.C. (Helicobapter pylori [1]; strain 1): 0.12 µg/mL
- M.I.C. (Helicobapter pylori [1]; strain 2): 0.03 µg/mL
- M.I.C. (Helicobapter pylori [1]; strain 3): 0.06 µg/mL
- M.I.C. (Helicobapter pylori [1]; strain 4): 0.015 µg/mL
- M.I.C. (Helicobapter pylori [1]; strain 5): 0.03 µg/mL
- M.I.C. (Helicobapter pylori [1]; strain 6): 0.03 µg/mL
- M.I.C. (Helicobapter pylori [1]; strain 7): 0.06 µg/mL
- M.I.C. (Helicobapter pylori [1]; strain 8): 0.06 µg/mL
- M.I.C. (Helicobapter pylori [1]; strain 9): 0.06 µg/mL
- M.I.C. (Helicobapter pylori [1]; strain 10): 0.015 µg/mL
- activity against the Helicobapter pylori strains used (Helicobapter pylori [2]; 0.1 µg/disk): active against 4 out of 10 strains
- activity against the Helicobapter pylori strains used (Helicobapter pylori [2]; 1 µg/disk): active against all the Helicobapter pylori used
- activity against the Helicobapter pylori strains used (Helicobapter pylori [2]; disk test): active against all the Helicobapter pylori strains used
- Inhibition halo (mm), Average (Helicobapter pylori [2]; 1 µg/disk): 24.9 mm
- Inhibition halo (mm), Average (Helicobapter pylori [2]; 10 µg/disk): 31.5 mm
- Inhibition halo (mm) at the concentration (µg/disk) (Helicobapter pylori [2]; strain 1, 0.01 µg/disk): 0 mm
- Inhibition halo (mm) at the concentration (µg/disk) (Helicobapter pylori [2]; strain 1, 1 µg/disk): 27 mm
- Inhibition halo (mm) at the concentration (µg/disk) (Helicobapter pylori [2]; strain 1, 10 µg/disk): 33 mm
- Inhibition halo (mm) at the concentration (µg/disk) (Helicobapter pylori [2]; strain 2, 0.01 µg/disk): 0 mm
- Inhibition halo (mm) at the concentration (µg/disk) (Helicobapter pylori [2]; strain 2, 0.1 µg/disk): 0 mm
- Inhibition halo (mm) at the concentration (µg/disk) (Helicobapter pylori [2]; strain 2, 1 µg/disk): 22 mm
- Inhibition halo (mm) at the concentration (µg/disk) (Helicobapter pylori [2]; strain 2, 10 µg/disk): 30 mm
- Inhibition halo (mm) at the concentration (µg/disk) (Helicobapter pylori [2]; strain 3, 0.01 µg/disk): 0 mm
- Inhibition halo (mm) at the concentration (µg/disk) (Helicobapter pylori [2]; strain 3, 0.1 µg/disk): 0 mm
- Inhibition halo (mm) at the concentration (µg/disk) (Helicobapter pylori [2]; strain 3, 1 µg/disk): 22 mm
- Inhibition halo (mm) at the concentration (µg/disk) (Helicobapter pylori [2]; strain 3, 10 µg/disk): 28 mm
- Inhibition halo (mm) at the concentration (µg/disk) (Helicobapter pylori [2]; strain 4, 0.01 µg/disk): 0 mm
- Inhibition halo (mm) at the concentration (µg/disk) (Helicobapter pylori [2]; strain 4, 1 µg/disk): 30 mm
- Inhibition halo (mm) at the concentration (µg/disk) (Helicobapter pylori [2]; strain 4, 10 µg/disk): 36 mm
- Inhibition halo (mm) at the concentration (µg/disk) (Helicobapter pylori [2]; strain 5, 0.01 µg/disk): 0 mm
- Inhibition halo (mm) at the concentration (µg/disk) (Helicobapter pylori [2]; strain 5, 0.1 µg/disk): 0 mm
- Inhibition halo (mm) at the concentration (µg/disk) (Helicobapter pylori [2]; strain 5, 1 µg/disk): 22 mm
- Inhibition halo (mm) at the concentration (µg/disk) (Helicobapter pylori [2]; strain 5, 10 µg/disk): 28 mm
- Inhibition halo (mm) at the concentration (µg/disk) (Helicobapter pylori [2]; strain 6, 0.01 µg/disk): 0 mm
- Inhibition halo (mm) at the concentration (µg/disk) (Helicobapter pylori [2]; strain 6, 0.1 µg/disk): 14 mm
- Inhibition halo (mm) at the concentration (µg/disk) (Helicobapter pylori [2]; strain 6, 1 µg/disk): 29 mm
- Inhibition halo (mm) at the concentration (µg/disk) (Helicobapter pylori [2]; strain 6, 10 µg/disk): 35 mm
- Inhibition halo (mm) at the concentration (µg/disk) (Helicobapter pylori [2]; strain 7, 0.01 µg/disk): 0 mm
- Inhibition halo (mm) at the concentration (µg/disk) (Helicobapter pylori [2]; strain 7, 0.1 µg/disk): 0 mm
- Inhibition halo (mm) at the concentration (µg/disk) (Helicobapter pylori [2]; strain 7, 1 µg/disk): 22 mm
- Inhibition halo (mm) at the concentration (µg/disk) (Helicobapter pylori [2]; strain 7, 10 µg/disk): 26 mm
- Inhibition halo (mm) at the concentration (µg/disk) (Helicobapter pylori [2]; strain 8, 0.01 µg/disk): 0 mm
- Inhibition halo (mm) at the concentration (µg/disk) (Helicobapter pylori [2]; strain 8, 0.1 µg/disk): 17 mm
- Inhibition halo (mm) at the concentration (µg/disk) (Helicobapter pylori [2]; strain 8, 1 µg/disk): 31 mm
- Inhibition halo (mm) at the concentration (µg/disk) (Helicobapter pylori [2]; strain 8, 10 µg/disk): 37 mm
- Inhibition halo (mm) at the concentration (µg/disk) (Helicobapter pylori [2]; strain 9, 0.01 µg/disk): 0 mm
- Inhibition halo (mm) at the concentration (µg/disk) (Helicobapter pylori [2]; strain 9, 0.1 µg/disk): 0 mm
- Inhibition halo (mm) at the concentration (µg/disk) (Helicobapter pylori [2]; strain 9, 1 µg/disk): 21 mm
- Inhibition halo (mm) at the concentration (µg/disk) (Helicobapter pylori [2]; strain 9, 10 µg/disk): 30 mm
- Inhibition halo (mm) at the concentration (µg/disk) (Helicobapter pylori [2]; strain 10, 0.01 µg/disk): 0 mm
- Inhibition halo (mm) at the concentration (µg/disk) (Helicobapter pylori [2]; strain 10, 0.1 µg/disk): 0 mm
- Inhibition halo (mm) at the concentration (µg/disk) (Helicobapter pylori [2]; strain 10, 1 µg/disk): 23 mm
- Inhibition halo (mm) at the concentration (µg/disk) (Helicobapter pylori [2]; strain 10, 10 µg/disk): 32 mm
- toxicity when intraperitoneally administered (Swiss female albino mice; intraperitoneal, 2000 mg/kg): not toxic
- toxicity when orally administered (Swiss female albino mice; oral, 5000 mg/kg): not toxic
